Source: US20240173389A1, “Compositions and Methods For Reducing Immune Intolerance” (LAPIX THERAPEUTICS, INC., priority 2021, published 2024)
“Also recorded” adds a separate entry of the source.

Columns and labels:
B57BL6 Mice [1] = assay: Anti-AAV9 titer analysis in mice given AAV9 with OPLT or liposomal OBLT (Example 3); format: in vivo
Experimental: (§1) OPLT and OBLT were dissolved in sterile PBS, and pH was adjusted to approximately 7.5. Liposomal OBLT was prepared using […]. AAV9 in PBS was used as a control. For treatment, AAV9 was co-mixed with OPLT or liposomal OBLT before administration, as per group assignment for each animal. AAV9 was administered with 5 mg of OPLT SC QW, 50 μg OBLT SC QW as liposomal OBLT or 7.2 μg OBLT PO QD as liposomal OBLT. For all SC groups, AAV9 was dosed at 10^6 particles/injection. For PO groups, AAV9 was dosed at 1.43×10^5 particles/injection.
(§2) Animals were injected with AAV9, AAV9+OPLT, or AAV9+liposomal OBLT SC QW for 4 weeks. Blood samples were collected for anti-AAV9 titer analysis after a one-week washout period from the last dose. For oral tolerance, animals were administered AAV9 or AAV9+liposomal OBLT PO, QD for 4 weeks. AAV9 was also administered SC QW to both groups during the treatment period. Blood samples were collected for anti-AAV9 titer analysis after a one-week washout period from the last dose.

FoxP3+/CD4+ T-cells = assay: Splenocytes cultured 3 days with anti-CD3/anti-CD28 with or without OPLT, percent FoxP3+/CD4+ T-cells (Example 6); format: cell-based, C57BL/6 mice; settings: 72-hour incubation
Experimental: OPLT was dissolved in sterile PBS at 100 μM, and pH was adjusted to approximately 7.5. Splenocytes from naïve C57BL/6 mice were stained with CFSE, prepared, cultured, and dosed. Cells were seeded at 2×10^5 cells/well.
To evaluate the effects of OPLT on FoxP3+/CD4+ T-cells, splenocytes were cultured for 3 days in presence of anti-CD3/anti-CD28 with and without 1.85 μg/ml (10 μM) OPLT. Cells were harvested at the end of a 72-hour incubation period and percent FoxP3+/CD4+ T-cells was determined by flow cytometry.

B57BL6 Mice [2] = assay: Anti-FVIII titer analysis in mice given FVIII co-mixed with compound SC QW 4 weeks, then FVIII re-challenge (Example 1); format: in vivo
Experimental: (§3) OPLT was dissolved in sterile PBS, and pH was adjusted to approximately 7.5. OPLS, a comparator compound, was dissolved in sterile PBS, and pH was adjusted to approximately 7.5. FVIII in PBS was used as a control. For treatment, FVIII was co-mixed with OPLT, OPLS or diluted in PBS before administration, as per group assignment for each animal. For re-challenge, FVIII was administered alone SC to all animals regardless of group assignment. […] For a head-to-head comparison, 5 mg/injection was selected for OPLT. FVIII was dosed at 1 μg/injection.
The study was conducted in two parts: a treatment phase and a re-challenge phase. The objective of the treatment phase was to test the ability of OPLT to reduce the immunogenicity of FVIII as an antigen compared to animals administered FVIII or FVIII+OPLS. Animals were injected with FVIII, FVIII+OPLT, or FVIII+OPLS SC QW for 4 weeks. Blood samples were collected for anti-FVIII titer analysis after a one-week washout period from the last dose. The objective of the re-challenge phase of the study was to evaluate the duration of tolerance. Animals that have been successfully tolerized toward FVIII will not mount a robust immune response towards FVIII upon subsequent exposure to FVIII. After the washout period, animals were injected with (1 μg) FVIII SC QW for 2 weeks. Blood samples were collected one week after each FVIII injection for anti-FVIII titer analysis.

[3] = tested on: RAW264.7 mouse monocyte macrophage cells; assay: SAR screen in RAW 264.7 cells with FVIII antigen, TGF-β ELISA (Example 5); format: cell-based; settings: free compounds dosed in mM range
Source text: RAW264.7 mouse monocyte macrophage cells were exposed to an increasing concentration of selected compounds in the presence of human plasma-derived FVIII as a model antigen protein. TNF-α and TGF-β production were monitored.
All molecules were formulated in RPMI media in aseptic conditions. The pH was adjusted to approximately 7.5 before dosing cells. 1,2-dimyristoyl-sn-glycero-3-phosphocholine (DM PC):PS liposomes were made at 70:30 molar ratio to make “PS” liposomes. The remaining liposomes were made by hydrating a DMPC lipid layer in PBS buffer containing a test compound to give a final molar ratio of 70:30 of DMPC:test compound.
RAW 264.7 cells were prepared, cultured, and dosed. Cells were seeded at 4×10^5 cells/well. OPLS, OPLT and L-homocysteic acid (LHA) were dosed at 100, 85, 70, 60, 50, 30, 10, 3, 1, 0.3, 0.1, 0.03 and 0.01 mM, or at 100, 85, 70, 60, 50, 30, 10, 3 and 1 mM, as indicated. O-Benzyl-L-serine (OBLS), S-phenyl-L-cysteine (SPLC), S-benzyl-L-cysteine (SBLC) and OBLT were dosed at 100, 85, 70, 60, 50, 30, 10, 3, 1, 0.3, 0.1, 0.03, 0.01, 0.003 and 0.001 μM. Finally, 100 μl of 40 μg/ml of FVIII as a sample antigen was added to each cell. LPS and free protein were used as positive and baseline controls, respectively. TNF-α and TGF-β ELISA were conducted as per the manufacturer's instructions (R & D Systems).

FoxP3+/CD4+ T-cell [4] = assay: Ex vivo flow cytometry of splenocytes for FoxP3+/CD4+ T-cells after AAV9 treatment period (Example 3); format: in vivo, mice; settings: SC QW 4 weeks with AAV9; OPLT 5 mg, liposomal OBLT 50 μg OBLT; one animal per group
Experimental: as §1, §2
One week after the last dose, one animal from each group was selected at random for ex-vivo analysis of the T-cell population. Spleens were collected and a single-cell suspension was prepared for cellular phenotyping by flow cytometry. Cells were stained and gated for CD4+ T-cells. FoxP3 expression level was evaluated for each animal.

FoxP3+/CD4+ T-cell [5] = assay: Ex vivo flow cytometry of splenocytes for FoxP3+/CD4+ T-cells after FVIII treatment period (Example 1); format: in vivo, mice
Experimental: as §3
One week after the last dose in the treatment period, one animal from each group was selected at random for ex vivo analysis of the T-cell population. Spleens were collected and a single-cell suspension was prepared for cellular phenotyping by flow cytometry. Cells were stained and gated for CD4+ T-cells. FoxP3 expression level was evaluated for each animal.

[6] = weeks 1 and 2 of re-challenge with FVIII alone SC QW

## N[C@@H](Cc1ccc(OP(=O)(O)O)cc1)C(=O)O [OPLT, O-phospho-L-tyrosine]
B57BL6 Mice [1]; SC QW 4 weeks
  anti-AAV9 immune response/titers versus AAV9 alone control: did not elicit an immune response
B57BL6 Mice [1]; SC QW 4 weeks with AAV9, after one-week washout, AAV9 SC control 8/8
  animals that developed measurable anti-AAV9 antibodies: 0/8
FoxP3+/CD4+ T-cells; 10 μM (1.85 μg/ml) OPLT, anti-CD3/anti-CD28
  increase in FoxP3+/CD4+ T-cells versus untreated cells: 118%
FoxP3+/CD4+ T-cells; 10 μM OPLT, untreated 12.7%
  percent FoxP3+/CD4+ T-cells: 27.7%
B57BL6 Mice [2]; OPLT versus OPLS, 5 mg/injection each
  inducing sustained immunotolerization toward FVIII: more effective than OPLS
B57BL6 Mice [2]; end of treatment after one-week washout
  anti-FVIII titers versus FVIII control group: statistically lower than the FVIII control group
B57BL6 Mice [2]; end of treatment after one-week washout, 5 mg/injection + FVIII SC QW 4 weeks, FVIII control 8/8
  animals that developed anti-FVIII antibodies: 3/8
B57BL6 Mice [2]; [6]
  average anti-FVIII titer in re-challenge period: lower titer than animals in the OPLS+FVIII and the FVIII control group
  immune response to FVIII re-challenge: did not develop a robust immune response
[3]
  TGF-β production versus OPLS: mimicked that of OPLS; also recorded: more potent inducers of TGF-β
FoxP3+/CD4+ T-cell [4]
  increase in FoxP3+/CD4+ compared to the untreated group: 122%
FoxP3+/CD4+ T-cell [5]; 5 mg/injection co-mixed with FVIII 1 μg SC QW 4 weeks, splenocytes of one animal per group one week after last dose
  increase in FoxP3+/CD4+ compared to the FVIII alone group: 188%
FoxP3+/CD4+ T-cell [5]; 5 mg/injection co-mixed with FVIII SC QW 4 weeks
  increase in FoxP3+/CD4+ compared to OPLS+FVIII treatment: 73%
FoxP3+/CD4+ T-cell [5]; 5 mg/injection co-mixed with FVIII SC QW 4 weeks, one animal per group, FVIII alone 2.94
  FoxP3+/CD4+ T-cell (flow cytometry of splenocytes): 8.47
